Data set [1] relates to A/Roma-ISS/02/08 H1N1.
Data set [2] concerns A/Parma/24/09 H1N1.
Data set [3] deals with A/Parma/05/06 H3N2.
Data set [4] has as its system A/Parma/05/06 H3N2. It is filed as cell-based, Influenza A virus. Particulars: turkey erythrocytes.
Data set [5] has as its system A/Roma-ISS/02/08 H1N1 oseltamivir-sensitive virus. Type of data set: cell-based, Influenza A virus. Particulars: turkey erythrocytes.
Data set [6] relates to Influenza A virus strains (all tested viruses). Particulars: earlier work; ref [23]; cited from earlier work.
Data set [7] shares this test system. As to conditions: earlier work; ref [23]; cited from earlier work. This is another data set of the same source.
[8] abbreviates: A/Roma-ISS/02/08 H1N1, MDCK cells, CC50 >25 μM.
The mark [9] stands for this setting: A/Parma/24/09 H1N1, MDCK cells, CC50 >25 μM.
[10] abbreviates: A/Parma/05/06 H3N2, MDCK cells, CC50 >25 μM.
Setting [11] is: A/Roma-ISS/02/08 H1N1, MDCK cells, mean of 3 experiments with standard errors.
The mark [12] stands for this setting: A/Parma/24/09 H1N1, MDCK cells, mean of 3 experiments with standard errors.
[13] abbreviates: A/Parma/05/06 H3N2, MDCK cells, mean of 3 experiments with standard errors.
Setting [14] is: A/Roma-ISS/2/08 H1N1, neutralization.

These results are taken from PMC5587682 (Scientific Reports, 2017).

Where two headings read alike, the source gives them in different places. Positions of bridges follow the written chain, without caps; N, C: chain ends. Residues, ends and D or L forms follow the SMILES beside them.

Consider `CC(C)C[C@H](NC(=O)[C@H](CO)NC(=O)[C@H](CO)NC(=O)[C@H](Cc1c[nH]cn1)NC(=O)[C@H](CCCCN)NC(=O)[C@@H](N)CO)C(=O)N[C@@H](CC(=O)O)C(=O)N[C@@H](CS)C(=O)N[C@H](C(=O)N[C@@H](CC(C)C)C(=O)N[C@@H](CCCNC(=N)N)C(=O)N1CCC[C@H]1C(=O)O)C(C)C` [Peptide 1, SKHSSLDCVLRP] (H-SKHSSLDCVLRP-OH), for which the “SI (CC50/EC50)” value in data set [1] (setting [8]) was >6.25.10^6; in data set [2] (setting [9]), >8.10^6; in data set [3] (setting [10]) it was >4.4.10^6.
With `CC(C)C[C@H](NC(=O)CNC(=O)[C@H](CCC(=O)O)NC(=O)[C@H](CC(N)=O)NC(=O)[C@H](C)NC(=O)[C@@H](N)CCCCN)C(=O)N[C@H](C(=O)N[C@@H](Cc1c[nH]c2ccccc12)C(=O)N[C@@H](CC(N)=O)C(=O)N[C@@H](CO)C(=O)N[C@@H](CC(C)C)C(=O)N[C@@H](CCCCN)C(=O)N[C@@H](CC(=O)O)C(=O)N[C@@H](CCCCN)C(=O)O)[C@@H](C)O` [Peptide 4, KANEGLTWNSLKDK] (H-KANEGLTWNSLKDK-OH), the “SI (CC50/EC50)” value in data set [1] (setting [8]) is >2.5.10^7; in data set [2] (setting [9]), >5.10^2; in data set [3] (setting [10]), >2.5.10^4. The same compound returned an EC50 in data set [1] (setting [11]) of 1 ± 0.15 pM.
In turn, “NRKSSKHSSLDCVLRP [Peptide 11, bLf C-lobe fragment 414–429]” showed an HI titer in data set [4] of 0.4 nM.
As for `CC(C)C[C@H](NC(=O)[C@@H](NC(=O)[C@H](CS)NC(=O)[C@H](CC(=O)O)NC(=O)[C@H](CC(C)C)NC(=O)[C@@H](N)CO)C(C)C)C(=O)N[C@@H](CCCNC(=N)N)C(=O)N1CCC[C@H]1C(N)=O` [Peptide 13, SLDCVLRP] (H-SLDCVLRP-NH2), the HI titer in data set [5] is on record as 0.0007 nM; in data set [4], 0.0004 nM. For the same compound, the “SI (CC50/EC50)” value in data set [1] (setting [8]) was >8.33.10^7; in data set [2] (setting [9]), >1.10^7; in data set [3] (setting [10]), >8.33.10^4. For the same compound, the EC50 is 2.5 ± 0.37 pM in data set [2] (setting [12]) and 300 ± 0.2 pM in data set [3] (setting [13]). In addition, in data set [3] (H3N2 strain, neutralization), the “loss of activity with respect to 1” value is “≈ 50 fold”.
On to “SKHSSLDCVLRPTEGY [Peptide 12, bLf C-lobe fragment 418–433]”, for which the HI titer in data set [5] stood at 0.7 nM; in data set [4], 0.03 nM.
For `CC(C)C[C@H](NC(=O)[C@H](CO)NC(=O)[C@H](CO)NC(=O)[C@H](Cc1c[nH]cn1)NC(=O)[C@H](CCCCN)NC(=O)[C@@H](N)CO)C(=O)N[C@@H](CC(=O)O)C(=O)N[C@@H](CS)C(=O)O` [Peptide 16, SKHSSLDC] (H-SKHSSLDC-OH; N-terminus and C-terminus assumed), the figures for the HI titer in data set [5] and in data set [4] were 0.3 nM and 12 nM, respectively. Besides, the “fold less active than 1” value in data set [1] (setting [14]) is 20 fold. In data set [1] (setting [14]), the “fold less active than 13” value was 270 fold. Further, the “SI (CC50/EC50)” value is >3.125.10^5 in data set [1] (setting [8]), >2.5.10^8 in data set [2] (setting [9]) and >5.10^6 in data set [3] (setting [10]). The 50% effective concentration (EC50) in data set [1] (setting [11]) was found to be 80 ± 0.19 pM; in data set [3] (setting [13]) it was 5 ± 0.45 pM. For the same compound, the “fold more potent than 1” value in data set [2] (A/Parma/24/09 H1N1, neutralization) stood at 30 fold.
`CC(=O)N[C@@H](CO)C(=O)N[C@@H](CCCCN)C(=O)N[C@@H](Cc1c[nH]cn1)C(=O)N[C@@H](CO)C(N)=O` [Peptide 17, SKHS] (Ac-SKHS-NH2): the “SI (CC50/EC50)” value in data set [1] is reported as >8.33.10^6; in data set [2], >5.2.10^8; in data set [3] it was >5.10^6. For the same compound, the EC50 in data set [1] (A/Roma-ISS/02/08, 1 h) was 3 ± 0.61 pM; in data set [3] (A/Parma/05/06, 1 h), 5 ± 0.02 pM.
As to “NRKSSKHSSLDCVLRPTEGY [Peptide 10, bLf C-lobe fragment 414–433]”, the HI titer was 0.3 nM in data set [5] and 0.0014 nM in data set [4].
For `C[C@@H](O)[C@H](NC(=O)[C@H](CCC(=O)O)NC(=O)[C@H](CO)NC(=O)[C@@H](N)CCCCN)C(=O)N[C@@H](CCCCN)C(=O)N[C@@H](CC(N)=O)C(=O)O` [Peptide 8, KSETKN] (H-KSETKN-OH; N-terminus and C-terminus assumed), the HI titer in data set [5] is recorded as 1.5 nM; in data set [4], 3 nM. Also, the “SI (CC50/EC50)” value in data set [1] (setting [8]) is given as >5.10^7; in data set [2] (setting [9]) it was >5.10^4; in data set [3] (setting [10]) it was >0.65.10^2. In data set [2] (setting [12]), this compound came in with an EC50 of 500 ± 0.46 pM.
As for `CC(=O)N[C@@H](CO)C(=O)N[C@@H](CC(C)C)C(=O)N[C@@H](CC(=O)O)C(=O)N[C@@H](CS)C(N)=O` [Peptide 15, SLDC] (Ac-SLDC-NH2), the “SI (CC50/EC50)” value in data set [1] (setting [8]) is given as >5.10^7; in data set [2] (setting [9]), >5.4.10^6. Also, it took 4.6 ± 0.05 pM to reach a half-maximal effect in data set [2] (setting [12]) (EC50).
As for NGESSADWAKN [Peptide 3], the “concentration inhibiting viral hemagglutination” value in data set [6] is given as “low picomolar”. For the same compound, in data set [7], the “concentration inhibiting viral infection” value was “low picomolar”.
Turning to “AGDDQGLDKCVPNSKEK [Peptide 2, bLf C-lobe fragment 506–522]”, the “concentration inhibiting viral hemagglutination” value in data set [6] is on record as “low picomolar”. For the same compound, in data set [7], the “concentration inhibiting viral infection” value is recorded as “low picomolar”.
With `CC(=O)N[C@H](C(=O)N[C@@H](CC(C)C)C(=O)N[C@@H](CCCNC(=N)N)C(=O)N1CCC[C@H]1C(N)=O)C(C)C` [Peptide 14, VLRP] (Ac-VLRP-NH2), the “SI (CC50/EC50)” value in data set [1] is >5.55.10^7; in data set [2], >2.5.10^7; in data set [3], >1.10^5. Also, the EC50 came out at 1 ± 0.05 pM in data set [2] (A/Parma/24/09, 1 h) and 250 ± 0.42 pM in data set [3] (A/Parma/05/06, 1 h).
In data set [4], `C[C@H](NC(=O)CNC(=O)[C@@H]1CCCN1C(=O)[C@H](C)NC(=O)[C@@H]1CSSC[C@H](NC(=O)[C@H](CO)NC(=O)CNC(=O)[C@@H](N)[C@@H](C)O)C(=O)N[C@@H](C)C(=O)N[C@@H](Cc2ccccc2)C(=O)N[C@@H](CC(=O)O)C(=O)N[C@@H](CCC(=O)O)C(=O)N[C@@H](Cc2ccccc2)C(=O)N[C@@H](Cc2ccccc2)C(=O)N[C@@H](CO)C(=O)N[C@@H](CCC(N)=O)C(=O)N[C@@H](CO)C(=O)N1)C(=O)N[C@@H](CC(=O)O)C(=O)N1CCC[C@H]1C(=O)N[C@@H](CCCCN)C(=O)N[C@@H](CO)C(=O)N[C@@H](CCCNC(=N)N)C(=O)O` [Peptide 5] (H-TGSCAFDEFFSQSCAPGADPKSR-OH; disulfide 4-14; N-terminus assumed) returned an HI titer of 97 nM.
With `C[C@H](NC(=O)[C@H](Cc1c[nH]c2ccccc12)NC(=O)[C@H](CC(=O)O)NC(=O)[C@H](C)NC(=O)[C@@H](NC(=O)[C@H](CO)NC(=O)[C@H](CCC(=O)O)NC(=O)CNC(=O)[C@H](CC(N)=O)NC(=O)[C@@H](N)[C@@H](C)O)[C@@H](C)O)C(=O)N[C@@H](CCCCN)C(=O)N[C@@H](CC(N)=O)C(N)=O` [Peptide 6, TNGESTADWAKN] (H-TNGESTADWAKN-NH2; N-terminus and C-terminus assumed), the HI titer is 0.7 nM in data set [5] and 0.3 nM in data set [4]. Also, the figures for the “SI (CC50/EC50)” value in data set [1] (setting [8]), in data set [2] (setting [9]) and in data set [3] (setting [10]) were >6.25.10^4, >5.10^2 and >2.5.10^3, respectively. The compound also displayed an EC50 in data set [1] (setting [11]) of 400 ± 0.02 pM.

The term EC50 denotes the concentration giving half of the maximal effect.
